# Patent publication US9212168B2 (priority 2011, dated 2015)
# Tested on: HCV genotype 1a replicon
# Test: HCV genotype 1a replicon assay (NS3 protease activity readout)
# Assay type: cell-based, hepatitis C virus
# Conditions: HCV genotype 1a replicon
# Description: Assay 2: HCV Genotype 1a Replicon Assay
# The HCV genotype 1a replicon cell line was obtained from Apath LLC (APC89; Huh7.5 cell background). This subgenomic replicon contains the N-terminus of the HCV core protein fused to the neomycin-resistance selectable marker. The EMCV IRES lies downstream and drives expression of the non-structural proteins NS3-NS5B. Compound potencies were determined using the NS3-specific protease activity in lysates as a measurement of compound inhibition of replicon levels.
# Cells were grown at 37° C. in a 5% CO2 humidified incubator in DMEM (Invitrogen) with 10% FBS (HyClone), 1×NEAA (Invitrogen), 1× Pen-Strep (Invitrogen), and 850 μg/mL G418 (Invitrogen). On day 1 of the assay, cells were plated at 15,000 cells/well in black 96-well tissue culture plates (Costar) in 200 μL media lacking G418. Four hours later, once the cells had adhered, the media was removed and replaced with media (no G418) containing dose-responses of test compounds. Compounds were initially diluted in DMSO and then diluted another 200× in media to bring the final DMSO concentration down to 0.5%. The cells were incubated with test compounds for 48 or 72 hours. At the end of the incubation period, media and compound were removed from the plates.
# To determine the NS3-specific protease activity in lysates, the cells were lysed at room temperature in 50 μL/well of 50 mM Hepes pH 7.5, 150 mM NaCl, 15% Glycerol, 0.15% Triton X-100, 10 mM DTT for 20 minutes with shaking. 50 μL of an NS3/4a protease-specific FRET substrate (Anaspec RET S1 Cat#22991) was then added to the wells at a final concentration of 15 μM. The plates were incubated at 37° C. for 20 minutes, which corresponds to a timepoint at which the protease activity is still in the linear phase. Protease activity was determined by measuring fluorescence (Excitation: 340 nm; Emission: 509 nm).
# To analyze the data, the fluorescence was plotted vs. the compound concentration, and EC50 values were determined from a 4-parameter robust fit model using GraphPad Prism software.
row,SMILES,Genotype 1a
1,COC(=O)NC(C(=O)N1CC(OC)CC1c1nc(-c2ccc(-c3ccc(NC(=O)c4ccc(N5CCN(C(=O)C(C)(C)CO)CC5C)nc4)cc3OC(F)(F)F)cc2)c[nH]1)C(C)(C)O (stereo not drawn) [Example 16-17],D (D represents pEC50>10 (EC50<0.1 nM))
2,COC(=O)N[C@H](C(=O)N1C[C@@H](OC)C[C@H]1c1nc(-c2ccc(-c3cc(Cl)c(NC(=O)c4ccc(N5CCN(C(=O)C(C)(C)C(=O)O)C[C@H]5C)nc4)cc3OC(F)(F)F)cc2)c[nH]1)C1CCOCC1 [Example 28-23],"C (C represents pEC50 between and 9 and about 10, (EC50 between 1 nM and 0.1 nM))"
3,COC(=O)N[C@H](C(=O)N1C[C@@H](C)C[C@H]1c1nc(-c2ccc(-c3cc(F)c(NC(=O)c4ccc(N5CCN(C(=O)[C@]6(C)CCCN6C(=O)OC(C)(C)C)C[C@H]5C)nc4)cc3OC(F)(F)F)cc2)c[nH]1)C(C)C [Example 1-26],D (D represents pEC50>10 (EC50<0.1 nM))
4,COC(=O)N[C@H](C(=O)N1C[C@@H](C)C[C@H]1c1nc(-c2ccc(-c3cc(Cl)c(NC(=O)c4ccc(N5CCN(C(=O)C(C)(C)CO)C[C@H]5C)nc4)cc3C(F)(F)F)cc2)c[nH]1)C1CCCCC1 [Example 19-7],B (B represents pEC50 between 8 and 9 (EC50 between 1 and 10 nM))
5,COC(=O)NC(C(=O)N1C[C@@H](C)C[C@H]1c1nc(-c2ccc(-c3cc(Cl)c(C(=O)Nc4ccc(N5CCN(C(=O)C(C)(C)C)C[C@H]5C)nc4)cc3OC(F)(F)F)cc2)c[nH]1)C1C[C@@H](C)O[C@@H](C)C1 (stereo partly drawn) [Example 23-1],A (A represents a pEC50 value between 6 and 8 (EC50 between 1 μM and 10 nM))
6,COC(=O)NC(C(=O)N1CC(F)CC1c1nc(-c2ccc(-c3cc(Cl)c(NC(=O)c4ccc(N5CCN(C(=O)C(C)(C)CO)CC5C)nc4)cc3OC(F)(F)F)cc2)c[nH]1)C1CCOCC1 (stereo not drawn) [Example 29-4],D (D represents pEC50>10 (EC50<0.1 nM))
7,COC(=O)N[C@H](C(=O)N1C[C@@H](C)C[C@H]1c1nc(-c2ccc(-c3cc(F)c(C(=O)Nc4ccc(N5CCN(C(=O)C(C)(C)C)C[C@H]5C)nc4)cc3OC(F)(F)F)cc2)c(Cl)[nH]1)C(C)C [Example 4-45],"C (C represents pEC50 between and 9 and about 10, (EC50 between 1 nM and 0.1 nM))"
8,COC(=O)N[C@H](C(=O)N1C[C@@H](C)C[C@H]1c1nc(-c2ccc(-c3ccc(C(=O)Nc4ccc(N5C[C@H](C)N(C(=O)C(C)(C)C)C[C@H]5C)nc4)cc3OC(F)(F)F)cc2)c[nH]1)C(C)C [Example 4-15],D (D represents pEC50>10 (EC50<0.1 nM))
9,COC(=O)NC(C(=O)N1C[C@@H](C)C[C@H]1c1nc(-c2ccc(-c3c(F)cc(NC(=O)c4ccc(N5CCN(C(=O)C(C)(C)C)C[C@H]5C)nc4)cc3F)cc2)c[nH]1)C1CCCCC1 (stereo partly drawn) [Example 21-1],A (A represents a pEC50 value between 6 and 8 (EC50 between 1 μM and 10 nM))
10,COC(=O)N[C@H](C(=O)N1C[C@@H](C)C[C@H]1c1nc(-c2ccc(-c3ccc(C(=O)Nc4ccc(N5C[C@H](C)N(C(=O)NC(C)C)C[C@H]5C)nc4)cc3OC(F)(F)F)cc2)c[nH]1)C(C)C [Example 4-25],"C (C represents pEC50 between and 9 and about 10, (EC50 between 1 nM and 0.1 nM))"
11,CCC(=O)N1CCC[C@@H]1C(=O)N1CCN(c2ccc(C(=O)Nc3cc(OC(F)(F)F)c(-c4ccc(-c5c[nH]c([C@@H]6C[C@H](C)CN6C(=O)[C@@H](NC(=O)OC)C(C)C)n5)cc4)cc3Cl)cn2)[C@H](C)C1 [Example 1-48],D (D represents pEC50>10 (EC50<0.1 nM))
12,COC(=O)N[C@H](C(=O)N1C[C@@H](C)C[C@H]1c1nc(-c2ccc(-c3ccc(C(=O)Nc4ccc(N5CCN(C(=O)[C@]6(C)CCCN6C(=O)[C@@H](NC(=O)OC)C(C)C)C[C@H]5C)nc4)cc3OC(F)(F)F)cc2)c[nH]1)C(C)C [Example 4-3],D (D represents pEC50>10 (EC50<0.1 nM))
13,COC(=O)N[C@H](C(=O)N1C[C@@H](OC)C[C@H]1c1nc(-c2ccc(-c3cc(Cl)c(NC(=O)c4ccc(N5CCN(C(=O)C(C)(C)CO)C[C@H]5C)nc4)cc3C(F)(F)F)cc2)c[nH]1)C1CCOCC1 [Example 19-13],D (D represents pEC50>10 (EC50<0.1 nM))
14,COC(=O)NC(C(=O)N1CC(OC)CC1c1nc(-c2ccc(-c3ccc(NC(=O)c4ccc(N5CCN(C(=O)C(C)(C)C)CC5C)nc4)cc3OC(F)(F)F)cc2)c[nH]1)C(C)(C)O (stereo not drawn) [Example 16-18],D (D represents pEC50>10 (EC50<0.1 nM))
15,CNC(=O)N1CCC[C@@]1(C)C(=O)N1C[C@@H](C)N(c2ccc(C(=O)Nc3cc(OC(F)(F)F)c(-c4ccc(-c5c[nH]c([C@@H]6C[C@H](C)CN6C(=O)[C@@H](NC(=O)OC)C(C)C)n5)cc4)cc3F)cn2)C[C@@H]1C [Example 1-24],D (D represents pEC50>10 (EC50<0.1 nM))
16,COC(=O)N[C@H](C(=O)N1C[C@@H](N2CCOCC2)C[C@H]1c1nc(-c2ccc(-c3cc(Cl)c(NC(=O)c4ccc(N5CCN(C(=O)[C@H]6CC6(C)C)C[C@H]5C)nc4)cc3OC(F)(F)F)cc2)c[nH]1)C(C)C [Example 15-4],D (D represents pEC50>10 (EC50<0.1 nM))
17,CNC(=O)N1CCN(c2ccc(C(=O)Nc3ccc(-c4ccc(-c5c[nH]c([C@@H]6C[C@H](O)CN6C(=O)[C@@H](NC(=O)OC)C(C)C)n5)cc4)cc3)cn2)[C@H](C)C1 [Example 26-3],B (B represents pEC50 between 8 and 9 (EC50 between 1 and 10 nM))
18,COC(=O)N[C@H](C(=O)N1C[C@@H](C)C[C@H]1c1nc(-c2ccc(-c3ccc(C(=O)Nc4ccc(N5CCN(C(=O)N(C)C)C[C@H]5C)nc4)cc3OC(F)(F)F)cc2)c[nH]1)C(C)C [Example 4-33],"C (C represents pEC50 between and 9 and about 10, (EC50 between 1 nM and 0.1 nM))"
19,COC(=O)N[C@H](C(=O)N1C[C@@H](O)C[C@H]1c1nc(-c2ccc(-c3cc(Cl)c(NC(=O)c4ccc(N5CCN(C(=O)C(C)(C)C)C[C@H]5C)nc4)cc3OC(F)(F)F)cc2)c[nH]1)C1CCOCC1 [Example 26-10],A (A represents a pEC50 value between 6 and 8 (EC50 between 1 μM and 10 nM))

# Same assay, conditions: Hepatitis C virus, read-out: Genotype 1a, HCV genotype 1a replicon
row,SMILES,EC50
1,COC(=O)N[C@H](C(=O)N1[C@H](c2nc(-c3ccc(-c4ccc(C(=O)Nc5ccc(N6CCN(C(=O)[C@]7(C)C[C@@H](O)CN7C(=O)OC(C)(C)C)C[C@H]6C)nc5)cc4OC(F)(F)F)cc3)c[nH]2)C[C@@H]2CCCC[C@@H]21)C(C)C [Example 6-16],1 to 10 nM
2,COC(=O)N[C@H](C(=O)N1C[C@@H](C)C[C@H]1c1nc(-c2ccc(-c3cc(Cl)c(NC(=O)c4ccc(N5CCN(C(=O)C(C)(C)C)C[C@H]5C)nc4)cc3OC(F)(F)F)cc2)c(CO)[nH]1)C(C)C [Example 5-12],< 0.1 nM
3,CCOCCC(C)(C)C(=O)N1CCN(c2ccc(C(=O)Nc3cc(OC(F)(F)F)c(-c4ccc(-c5c[nH]c([C@@H]6C[C@H](C)CN6C(=O)[C@@H](NC(=O)OC)C(C)C)n5)cc4)cc3Cl)cn2)[C@H](C)C1 [Example 12-3],< 0.1 nM
4,COC(=O)N[C@H](C(=O)N1C[C@@H](C)C[C@H]1c1nc(-c2ccc(-c3cc(Cl)c(NC(=O)c4ccc(N5CCN(C(=O)CC6CCOCC6)C[C@H]5C)nc4)cc3OC(F)(F)F)cc2)c[nH]1)C(C)C [Example 12-28],< 0.1 nM
5,COC(=O)N[C@H](C(=O)N1C[C@H](N2Cc3ccccc3C2)C[C@H]1c1nc(-c2ccc(-c3cc(Cl)c(NC(=O)c4ccc(N5CCN(C(=O)C(C)(C)C)C[C@H]5C)nc4)cc3OC(F)(F)F)cc2)c[nH]1)C(C)C [Example 5-10],10 to 1000 nM
6,COC(=O)N[C@H](C(=O)N1C[C@@H](C)C[C@H]1c1nc(-c2ccc(-c3cc(Cl)c(NC(=O)c4ccc(N5CCN(C(=O)C6CCC6(C)C)C[C@H]5C)nc4)cc3OC(F)(F)F)cc2)c[nH]1)C(C)C (stereo partly drawn) [Example 12-21],< 0.1 nM
7,COC(=O)N[C@H](C(=O)N1C[C@@H](C)C[C@H]1c1nc(-c2ccc(-c3cc(Cl)c(NC(=O)c4ccc(N5CCN(C(=O)C(C)(C)CO)C[C@H]5C)nc4)cc3OC(F)(F)F)cc2)c(CO)[nH]1)C(C)C [Example 5-13],< 0.1 nM
8,[2H]C([2H])([2H])C1(C([2H])([2H])[2H])C[C@@H]1C(=O)N1CCN(c2ccc(NC(=O)c3ccc(-c4ccc(-c5c[nH]c([C@@H]6C[C@H]([S+](C)[O-])CN6C(=O)[C@@H](NC(=O)OC)C(C)C)n5)cc4)c(OC(F)(F)F)c3)cn2)[C@H](C)C1 (stereo partly drawn) [Example 6-20],1 to 10 nM
9,C[C@H]1C[C@@H](c2nc(-c3ccc(-c4cc(Cl)c(NC(=O)c5ccc(N6CCN(C(=O)C(C)(C)C)C[C@H]6C)nc5)cc4OC(F)(F)F)cc3)c[nH]2)N(C(=O)C(c2ccccc2)N2CCNCC2)C1 (stereo partly drawn) [Example 13-3],0.1 to 1 nM
10,COC(=O)N[C@@H](CSC)C(=O)N1C[C@@H](C)C[C@H]1c1nc(-c2ccc(-c3cc(Cl)c(NC(=O)c4ccc(N5CCN(C(=O)C(C)(C)C)C[C@H]5C)nc4)cc3OC(F)(F)F)cc2)c[nH]1 [Example 13-7],< 0.1 nM
11,COC(=O)N[C@H](C(=O)N1C[C@@H](N2CCCC2)C[C@H]1c1nc(-c2ccc(-c3cc(Cl)c(NC(=O)c4ccc(N5CCN(C(=O)C(C)(C)C)C[C@H]5C)nc4)cc3OC(F)(F)F)cc2)c[nH]1)C(C)C [Example 15-9],< 0.1 nM
